Patent US11492347B2 (ENYO PHARMA, priority 2018, dated 2022)

How the values were obtained:
UXF 1138 = experiment: Cytotoxicity, propidium iodide based monolayer assay; format: cell-based; details: 96 h; UXF 1138 uterine sarcoma, four days of treatment, T/C=50%; read-out: Absolute IC50
Method: (§1) The cytotoxicity was tested for compounds of the invention on five different cell-lines, namely LXFL 1121, MAXF 401, MMXF L-636, PRXF PC-3M and UXF 1138 which are respectively lung large cell carcinoma, breast adeno carcinoma, multiple myeloma, prostate adeno carcinoma and uterine sarcoma.
(§2) A working stock solution of the test compounds was prepared in DMSO at a concentration of 33 mM or 8.25 mM, and small aliquots were stored at −20° C. On each day of an experiment, a frozen aliquot of the working stock solution was thawed and stored at room temperature prior to and during treatment.
(§3) All liquid handling steps were performed using the Tecan Freedom EVO 200 platform. First, serial 2-fold dilutions of the 33 mM DMSO working stock solution were done in DMSO. The DMSO dilutions were then diluted 1:22 into cell culture medium in an intermediate dilution plate. Finally, 10 μl taken from the intermediate dilution plate were transferred to 140 μl/well of the final assay plate. Thus, the DMSO serial dilutions were diluted 1:330 with cell culture medium, and the DMSO concentration in the assay was 0.3% v/v.
(§4) Cell lines were routinely passaged once or twice weekly and maintained in culture for up to 20 passages. Most cell lines were grown at 37° C. in a humidified atmosphere with 5% CO2 in RPMI 1640 medium (25 mM HEPES, with L-glutamine, #FG1385, Biochrom, Berlin, Germany) supplemented with 10% (v/v) fetal calf serum (Sigma, Taufkirchen, Germany) and 0.05 mg/mL gentamicin (Life Technologies, Karlsruhe, Germany).
(§5) A modified propidium iodide (PI) based monolayer assay was used to assess the anti-cancer activity of the compounds. Briefly, cells were harvested from exponential phase cultures, counted and plated in 96 well flat-bottom microtiter plates at a cell density of 4,000 to 40,000 cells/well dependent on the cell line's growth rate. The individual seeding density for each cell line ensure exponential growth conditions over the whole or at least the bigger part of the treatment period. After a 24 h recovery period, to allow the cells to resume exponential growth, 10 μl of culture medium (6 control wells/cell line/plate) or of culture medium with test compounds were added. Compounds were applied at ten concentrations in 2-fold increments in duplicates up to 25 μM or 100 μM and treatment continued for four days. After four days of treatment, cells were next washed with 200 μl PBS to remove dead cells and debris, then 200 μl of a solution containing 7 μg/ml propidium iodide (PI) and 0.1% (v/v) Triton X-100 was added. After an incubation period of 1-2 hours at room temperature, fluorescence (FU) was measured using the Enspire Multimode Plate Reader (excitation λ=530 nm, emission k=620 nm) to quantify the amount of attached viable cells.
(§6) Drug effects were expressed in terms of the percentage of the fluorescence signal, obtained by comparison of the mean signal in the treated wells with the mean signal of the untreated controls (expressed by the test-versus-control value, T/C−value [%]):
(§7) [formula] IC values reported reflect the concentration of the test compound that achieves T/C=50%. Calculation was done by 4 parameter non-linear curve fit.

[1] = molecular target: T1, CISD3 Gene Product (Miner2) (Homo sapiens, UniProt P0C7P0); experiment: Stability of Fe-S cluster binding of purified NEET protein (absorbance 458 nm); format: biochemical; details: for Residual cluster bound at end of experiment (Percentage Absorbance 458 nm at time zero): CISD3 gene product 20 μM, pH 6, at 180 minutes, vehicle control 11%; for Residual cluster bound at end of experiment (Percentage Absorbance 458 nm at time zero) / Time (in minutes) to achieve 50% loss of bound cluster (Absorbance 458 nm): compound 60 μM; for Time (in minutes) to achieve 50% loss of bound cluster (Absorbance 458 nm): Miner2 20 μM, pH 6, 37° C., run time 180 minutes, vehicle control 60; for Stabiliser or destabiliser of Fe-S cluster binding by CISD3 Gene Product (Miner2): time to 50% cluster loss changed by more than 25% compared to the Control sample, at the concentrations tested
T1 sequence (P0C7P0 15-127): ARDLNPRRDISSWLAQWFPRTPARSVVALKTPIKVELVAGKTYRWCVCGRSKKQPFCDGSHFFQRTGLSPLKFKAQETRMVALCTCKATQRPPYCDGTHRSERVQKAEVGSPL
Method: (§8) The modulator effect on the NEET proteins encoded by human CISD1, CISD2, and CISD3 genes by the compounds of the invention has been tested and is reported below. Particularly, the biochemical function of the NEET proteins is measured by the stability of Fe—S cluster binding of the purified NEET proteins.
(§9) The Fe—S cluster binding capacity of NEET proteins is known to be coordinated by four amino-acids in a stretch of 16 (three Cysteine and one Histidine). As the lability of the Fe—S cluster of NEET proteins is sensitive to the environment, cluster stability measurements are one of the measures of interactions of NEET proteins with small molecules and compounds. NEET protein/2Fe-2S cluster stability can be assessed by monitoring the decay in absorbance of its characteristic 458-nm peak (characteristic of the oxidized 2Fe-2S cluster) over time. Each NEET protein (mitoNEET, NAF-1 and Miner 2) was tested for its Fe—S binding in the absence or presence of a compound according to the invention (see table 4 below). The rate of cluster release (time in minutes to achieve 50% loss of bound Fe—S cluster) was compared for each NEET protein in the presence of one of the compounds of the invention (in a 1:3 protein:compound molar ratio) relative to each protein alone.
(§10) At pH 6, all the three NEET proteins (mitoNEET, NAF-1 and Miner 2) have a characteristic rate of loss of the bound Fe—S cluster that can be measured by the decrease of absorbance at wavelength 458 nm over time, using a spectrophotometer. Thus, Bis-Tris buffer (100 mM Bis-Tris pH6, 100 mM Nacl) was used at pH 6 to dilute either DMSO (Blank sample: Bis-Tris Buffer pH 6, 66 μM DMSO), DMSO and one of the three NEET proteins (Control sample: Bis-Tris Buffer pH 6, 66 μM DMSO, 20 μM purified NEET protein) or DMSO, one of the three NEET proteins and a compound of the invention (Test sample: Bis-Tris Buffer pH 6, 66 μM DMSO, 20 μM purified NEET protein, 60 μM compound of the invention).
(§11) A reaction mix containing DMSO diluted in the Bis-Tris Buffer with or without a compound of the invention was prepared. The purified NEET protein was the last component added to the reaction mix which was then aliquoted into 4 replicates in 96 wells plates. The absorbance at wavelength 458 nm was taken at 5 minutes intervals at 37° C. with a spectrofluorimeter. The assay run time for CISD2 gene product (NAF-1) was 500 minutes and 180 minutes for both the CISD1gene product (mitoNEET) and the CISD3 gene product (Miner2).
(§12) In addition to time monitoring, residual bound Fe—S cluster to NEET protein was measured at the final point of the spectrometry assay for each Test sample and compared to the Control sample data (in parenthesis table 4). This residual binding is measured by the differential percentage between the absorbance 458 nm at time zero and the absorbance 458 nm at the end of the experiment (i.e. respectively 500 or 180 minutes as described here above), showing the percentage of NEET protein still able to bind a Fe—S cluster.
(§13) Analysis of the absorbance enables the time for which 50% loss of bound Fe—S cluster is reached (i.e. a 50% absorbance decrease at 458 nm) for each Test sample and each Control sample (in parenthesis table 4) to be determined. The data are then compared to determine whether the compound of the invention stabilizes or destabilizes the NEET protein/Fe—S cluster binding.

[2] = molecular target: T2, CISD2 Gene Product (NAF-1) (Homo sapiens, UniProt Q8N5K1); experiment: as above; format: biochemical; details: for Time (in minutes) to achieve 50% loss of bound cluster (Absorbance 458 nm) / Residual cluster bound at end of experiment (Percentage Absorbance 458 nm at time zero): NAF-1 20 μM, compound 60 μM; for Time (in minutes) to achieve 50% loss of bound cluster (Absorbance 458 nm): pH 6, 37° C., run time 500 minutes, vehicle control 310 or 210; for Residual cluster bound at end of experiment (Percentage Absorbance 458 nm at time zero): pH 6, at 500 minutes, vehicle control 3%; for Stabiliser or destabiliser of Fe-S cluster binding by CISD2 Gene Product (NAF-1): time to 50% cluster loss changed by more than 25% compared to the Control sample, at the concentrations tested
T2 sequence (Q8N5K1 57-135 limits assumed): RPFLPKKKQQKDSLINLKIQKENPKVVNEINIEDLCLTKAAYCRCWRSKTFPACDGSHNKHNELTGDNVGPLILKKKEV
Method: as §8, §9, §10, §11, §12, §13

[3] = molecular target: T3, CISD1 Gene Product (mitoNEET) (Homo sapiens, UniProt Q9NZ45); experiment: as above; format: biochemical; details: for Time (in minutes) to achieve 50% loss of bound cluster (Absorbance 458 nm) / Residual cluster bound at end of experiment (Percentage Absorbance 458 nm at time zero): mitoNEET 20 μM, compound 60 μM; for Time (in minutes) to achieve 50% loss of bound cluster (Absorbance 458 nm): pH 6, 37° C., run time 180 minutes, vehicle control 80; for Residual cluster bound at end of experiment (Percentage Absorbance 458 nm at time zero): pH 6, at 180 minutes, vehicle control 16%
T3 sequence (Q9NZ45 33-108 limits assumed): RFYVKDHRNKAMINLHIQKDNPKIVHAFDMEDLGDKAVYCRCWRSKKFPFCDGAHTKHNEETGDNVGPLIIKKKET
Method: as §8, §9, §10, §11, §12, §13

[4] = tested on: H1N1 (influenza A/New Caledonia/20/99); experiment: microbe, parasite or virus in culture; format: cell-based; details: H1N1, A549, 48 h
PRXF PC-3M = experiment: Cytotoxicity, propidium iodide based monolayer assay; format: cell-based; details: Homo sapiens, 96 h; PRXF PC-3M prostate adeno carcinoma, four days of treatment, T/C=50%; read-out: Absolute IC50
Method: as §1, §2, §3, §4, §5, §6, §7

NFκB = NFκB reporter assay, TNFα stimulation of A549 NFκB-NanoLuciferase reporter cells; format: cell-based; details: Homo sapiens, 4 ng/ml TNFα, NanoGlo luciferase assay 6 hours later
Source text: Compounds of the present invention have been tested for their capacity to inhibit NFκB.
The NFκB reporter construct was made by cloning 5 NFκB responsive elements upstream of a NanoLuciferase reporter gene flanked by AAVS1 genomic sequences.
NFκB Responsive element fused with NanoLuciferase and SV40 late Poly(A) signal was amplified from pNL3.2-NFκB-Nluc (Promega) using NFKB-NLUC-F and NFKB-NLUC-R primers and inserted by Infusion (TaKaRa) in AAVS1 SA-2A-puro-pA donor plasmid (Hockemeyer et al, Nat Biotechnol. 2009, 27, 851-7) digested by Sal1. pCRISPR AAVS1-T2 expressing a guide RNA (gRNA) to target human AAVS1 (T2 target sequence) was constructed by inserting AAVS1-T2A hybridized primers in pLentiCRISPR v2-blast (Sanjana et al, Nat Methods. 2014, 11, 783-4) digested by Bsmbl.
A549 cells were transfected by the plasmids and puromycine selected for 5 days (1 μg mL-1). Then clones were obtained by limiting dilution and selected to maximize TNF dependent NFκB-NanoLuciferase induction.
The reporter cells were seeded on a 96-well plate for overnight with DMEM including 10% FBS. Test compounds were added at varying concentrations. The cells then were treated with 4 ng/ml TNFα (Peprotech, ref E251) in DMEM+10% FBS. NanoGlo luciferase assay (Promega) was carried out 6 hours later. Luminescence was measured using a Spark 20M spectrofluorimeter (Tecan). Values were normalized to the luminescence measured in untreated cells.

Row | SMILES | IC50 (UXF 1138) [nM] | Residual cluster bound at end of experiment (Percentage Absorbance 458 nm at time zero) [1] | Time (in minutes) to achieve 50% loss of bound cluster (Absorbance 458 nm) [1] | Stabiliser or destabiliser of Fe-S cluster binding by CISD3 Gene Product (Miner2) [1] | Time (in minutes) to achieve 50% loss of bound cluster (Absorbance 458 nm) [2] | Residual cluster bound at end of experiment (Percentage Absorbance 458 nm at time zero) [2] | Stabiliser or destabiliser of Fe-S cluster binding by CISD2 Gene Product (NAF-1) [2] | Time (in minutes) to achieve 50% loss of bound cluster (Absorbance 458 nm) [3] | Residual cluster bound at end of experiment (Percentage Absorbance 458 nm at time zero) [3] | Stabiliser or destabiliser of Fe-S cluster binding by CISD1 Gene Product (mitoNEET) ([3]; time to 50% cluster loss changed by more than 25% compared to the Control sample, at the concentrations tested) | IC50 [4] [nM] | IC50 (PRXF PC-3M) [nM] | EC50 (NFκB) [nM]
1 | COCCNc1ccc(C(=O)Nc2sc3c(c2C(=O)O)CC(C)(C)CC3(C)C)cc1 [Compound #60, 2-[[4-(2-Methoxyethylamino)benzoyl]amino]-5,5,7,7-tetramethyl-4,6-dihydrobenzothiophene-3-carboxylic acid] | 851 | 38% (11%) | 90 (60) minutes | Stabilisers | 120 (310) minutes | 12% (3%) | destabilisers | 100 (80) minutes | 35% (16%) | stabilisers | 10 | – | –
2 | CC1(C)Cc2c(sc(NC(=O)c3ccc(NC4CCOCC4)cc3)c2C(=O)O)C(C)(C)C1 [Compound #35, 5,5,7,7-Tetramethyl-2-[[4-(tetrahydropyran-4-ylamino)benzoyl]amino]-4,6-dihydrobenzothiophene-3-carboxylic acid] | 743 | 20% (11%) | 50 (60) minutes | – | 220 (310) minutes | 13% (3%) | destabilisers | 85 (80) minutes | 26% (16%) | – | 16.8 | 702 | –
3 | CC1(C)Cc2c(sc(NC(=O)c3ccc(NCC4CCOCC4)cc3)c2C(=O)O)C(C)(C)C1 [Compound #132, 5,5,7,7-Tetramethyl-2-[[4-(tetrahydropyran-4-ylmethylamino)benzoyl]amino]-4,6-dihydrobenzothiophene-3-carboxylic acid] | – | 50% (11%) | – | Stabilisers | 210 (310) minutes | 19% (3%) | destabilisers | 90 (80) minutes | 19% (16%) | – | 1.7 | – | 40
4 | CC1(C)CCc2sc(NC(=O)c3ccc(NC4CCOCC4)cc3)c(C(=O)O)c21 [Compound #62, 4,4-Dimethyl-2-[[4-(tetrahydropyran-4-ylamino)benzoyl]amino]-5,6-dihydrocyclopenta[b]thiophene-3-carboxylic acid] | – | – | – | – | – | – | – | – | – | – | 50 | – | 380
